# Source: patent US20220194938A1, “NOVEL COMPOUNDS AND PHARMACEUTICAL COMPOSITIONS THEREOF FOR THE TREATMENT OF INFLAMMATORY DISORDERS” (GALAPAGOS NV, priority 2019, published 2022)
# Key:
# [1] = biological target: T1, human IRAK-4 (Homo sapiens, UniProt Q9NWZ3); assay: Phosphorylation IC50 determination for human IRAK-4 (ADP-Glo kinase assay); details: human IRAK-4, RIP140 substrate, Km ATP; read-out: IRAK4 ADPglo biochemical assay IC50
# T1 construct: purchased Carna Biosciences 09 145
# T1 sequence (Q9NWZ3 1-460): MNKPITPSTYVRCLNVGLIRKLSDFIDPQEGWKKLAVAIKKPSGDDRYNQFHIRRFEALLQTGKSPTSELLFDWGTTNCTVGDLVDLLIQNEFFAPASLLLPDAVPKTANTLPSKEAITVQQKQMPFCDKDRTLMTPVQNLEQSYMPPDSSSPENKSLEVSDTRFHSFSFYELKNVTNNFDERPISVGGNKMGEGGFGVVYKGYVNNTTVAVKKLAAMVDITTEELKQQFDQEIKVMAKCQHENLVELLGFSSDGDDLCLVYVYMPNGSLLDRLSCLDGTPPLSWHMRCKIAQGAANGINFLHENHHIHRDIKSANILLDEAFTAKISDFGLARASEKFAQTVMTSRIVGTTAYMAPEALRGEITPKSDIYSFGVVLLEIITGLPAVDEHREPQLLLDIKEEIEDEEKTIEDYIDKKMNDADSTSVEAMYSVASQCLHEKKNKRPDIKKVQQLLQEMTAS
# Summary of the method: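 IRAK-4 phosphorylation of RIP140 at Km ATP in Tris pH 7.5 buffer with Triton X-100, EGTA, MgCl2, DTT and MnCl2, 120 min at room temperature. ADP formed was measured by ADP-Glo luminescence. Ten-point, 5-fold dilutions (highest final 20 μM, automated format; 1% DMSO), normalised to staurosporine (100%) and DMSO (0%) controls.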
# [2] = system: pooled cryopreserved hepatocytes; assay: Metabolic stability in hepatocytes (mouse); type: in vitro ADME; details: 1 μM test compound
# Description: (§1) 4.6. Metabolic Stability in Hepatocytes
# (§2) The aim of this assay is to determine the metabolic stability of the compound in hepatocytes (cryopreserved) of different species. Low hepatocyte stability may result in the formation of unwanted metabolites, high clearance, and therefore is not desirable.
# (§3) The decrease in parent was assessed by measuring the percentage remaining by LC-MS/MS analysis.
# (§4) A 10 mM stock solution of test compound in DMSO was first diluted in DMSO to 3 mM, and then in modified Krebs-Henseleit buffer (Sigma, K3753) to 5 μM. This compound dilution was added to a suspension of pooled cryopreserved hepatocytes (BioreclamationIVT) at 37° C. under gentle shaking.
# (§5) Final reaction conditions were: 1 μM of test compound, 0.03% DMSO, 0.5 million viable hepatocytes/mL, and 75 μL incubation volume.
# (§6) Testosterone (1 μM) and 7-hydroxycoumarin (1 μM) were used, respectively as phase I and phase II metabolic reaction controls.
# (§7) After 0, 10, 20, 45, 90, 120 and 180 min of incubation, the reaction was terminated with 225 μL of MeCN:MeOH (2:1) containing 100 ng/mL of diclofenac as analytical internal standard. Samples were mixed, centrifuged and the supernatant analyzed by LC-MS/MS.
# (§8) The instrument responses (ratios of test compound and internal standard peak areas) were referenced to the zero time point samples (considered as 100%) in order to determine the percentage of compound remaining.
# (§9) Plots of percentage compound remaining are used to determine the intrinsic clearance in the hepatocyte incubations using the following equations:
# (§10) Scaled Clint[L/h/kg]=Clint[μL/min/10^6 cells]*#(10^6) cells/g liver*60*(1/10^6) Scaled Clint unbound [L/h/kg]=Clint [L/h/kg]/Fu,inc where: fu,inc equals hepatocyte binding, derived from microsomal binding (fu,mic) by following equation: […]
# [3] = system: pooled cryopreserved hepatocytes; assay: Metabolic stability in hepatocytes (human); type: in vitro ADME; details: 1 μM test compound
# Description: as §1, §2, §3, §4, §5, §6, §7, §8, §9, §10
Compound,IC50 [1],Mouse (Perc. remaining at 90 min) [2],Human (Perc. remaining at 90 min) [3]
"CC(C)(O)CCc1cn2cc(NC(=O)c3cccc(C(F)(F)F)n3)c(C(=O)NCC(F)F)cc2n1 [Compound 48, N-(2,2-difluoroethyl)-2-(3-hydroxy-3-methylbutyl)-6-(6-(trifluoromethyl)picolinamido)imidazo[1,2-a]pyridine-7-carboxamide]",0.1 to 5 nM,86%,100.95%
"CCNC(=O)c1cc2nc(CCC(C)(C)O)cn2cc1NC(=O)c1cccc(C(F)(F)F)n1 [Compound 49, N-ethyl-2-(3-hydroxy-3-methylbutyl)-6-(6-(trifluoromethyl)picolinamido)imidazo[1,2-a]pyridine-7-carboxamide]",0.1 to 5 nM,87.15%,95.9%
